Source: US6653300B2, “Pyrazole compounds useful as protein kinase inhibitors” (Vertex Pharmaceuticals Incorporated, priority 2000, dated 2003)

Columns and labels:
GSK-3β (AA 1-420) = molecular target: T1, GSK-3β (AA 1-420) (Homo sapiens, UniProt P49841); test: Ki determination for the inhibition of GSK-3 (coupled enzyme system); format: biochemical; details: 20 μM ATP, 20 nM GSK-3β, 30° C.
T1 construct: GSK-3β (AA 1-420)
Summary of the method: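 GSK-3β (AA 1-420, 20 nM) was run in a pyruvate kinase/LDH-coupled NADH assay in 100 mM HEPES pH 7.5, 10 mM MgCl2, 25 mM NaCl, 1 mM DTT, 1.5% DMSO, with 300 μM phosphopeptide substrate. Compound (0.002–30 μM) was preincubated 10 min at 30° C, then 20 μM ATP was added.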

AKT-3 = AKT-3 (Homo sapiens, UniProt Q9Y243); test: AKT inhibition assay (coupled enzyme assay); format: biochemical; details: 45 nM AKT, 170 μM ATP, 30° C.
Sequence of AKT-3 (Q9Y243 whole entry, species assumed): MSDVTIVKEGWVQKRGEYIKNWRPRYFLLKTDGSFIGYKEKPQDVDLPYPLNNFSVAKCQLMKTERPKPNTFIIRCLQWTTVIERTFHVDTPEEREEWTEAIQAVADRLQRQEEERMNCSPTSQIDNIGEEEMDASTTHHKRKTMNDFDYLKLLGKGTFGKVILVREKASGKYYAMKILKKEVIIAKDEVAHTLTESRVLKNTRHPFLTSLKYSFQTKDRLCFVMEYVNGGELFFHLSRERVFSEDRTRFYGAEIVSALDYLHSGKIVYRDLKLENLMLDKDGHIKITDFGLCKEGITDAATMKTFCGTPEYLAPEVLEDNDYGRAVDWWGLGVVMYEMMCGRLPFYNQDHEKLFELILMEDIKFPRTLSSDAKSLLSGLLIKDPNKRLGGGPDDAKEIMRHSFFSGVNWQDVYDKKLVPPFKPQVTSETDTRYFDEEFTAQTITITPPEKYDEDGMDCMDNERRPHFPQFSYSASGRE
Procedure: Compounds were screened for their ability to inhibit AKT using a standard coupled enzyme assay (Fox et al., Protein Sci., (1998) 7, 2249). Assays were carried out in a mixture of 100 mM HEPES 7.5, 10 mM MgCl2, 25 mM NaCl, 1 mM DTT and 1.5% DMSO. Final substrate concentrations in the assay were 170 μM ATP (Sigma Chemicals) and 200 μM peptide (RPRAATF, American Peptide, Sunnyvale, Calif.). Assays were carried out at 30° C. and 45 nM AKT. Final concentrations of the components of the coupled enzyme system were 2.5 mM phosphoenolpyruvate, 300 μM NADH, 30 μg/ML pyruvate kinase and 10 μg/ml lactate dehydrogenase.
An assay stock buffer solution was prepared containing all of the reagents listed above, with the exception of AKT, DTT, and the test compound of interest. 56 μl of the stock solution was placed in a 384 well plate followed by addition of 1 μl of 2 mM DMSO stock containing the test compound (final compound concentration 30 μM). The plate was preincubated for about 10 minutes at 30° C. and the reaction initiated by addition of 10 μl of enzyme (final concentration 45 nM) and 1 mM DTT. Rates of reaction were obtained using a BioRad Ultramark plate reader (Hercules, Calif.) over a 5 minute read time at 30° C.

T1 sequence (P49841 whole entry, the tested form may be a part): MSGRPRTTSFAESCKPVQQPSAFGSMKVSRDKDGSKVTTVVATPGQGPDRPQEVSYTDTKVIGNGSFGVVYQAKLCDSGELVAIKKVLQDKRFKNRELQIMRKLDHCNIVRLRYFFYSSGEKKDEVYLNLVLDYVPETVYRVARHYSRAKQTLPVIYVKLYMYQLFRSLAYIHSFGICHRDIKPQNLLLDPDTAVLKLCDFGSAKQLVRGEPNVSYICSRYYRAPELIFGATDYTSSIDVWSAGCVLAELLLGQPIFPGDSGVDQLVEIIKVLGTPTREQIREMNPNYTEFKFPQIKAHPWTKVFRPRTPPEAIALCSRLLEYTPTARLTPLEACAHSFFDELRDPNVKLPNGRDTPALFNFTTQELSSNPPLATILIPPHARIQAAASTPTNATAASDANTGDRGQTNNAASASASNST

**Q.** Which results are given for `c1ccc2c(Nc3cc(C4CC4)[nH]n3)nc(Nc3ccc4ncsc4c3)nc2c1` [IIc-32, [2-(Benzothiazol-6-ylamino)-quinazolin-4-yl]-(5-cyclopropyl-2H-pyrazol-3-yl)-amine]?
**A.** Ki (GSK-3β (AA 1-420)): < 100 nM; Ki (AKT-3): 1000 to 20000 nM
